From PubChem BioAssay AID2060501 (Molecular Pharmacology Branch, DTP, NCI, 2025)
Several values for one entry are separate records, joined by “and”; a condition that tells them apart may be missing. Identical values can stand only once.

System: 282377-053-R-J1-PDC complex spheroids, viability
Experiment: Anticancer human tumor 282377-053-R-J1-PDC patient-derived colon adenocarcinoma cell line growth inhibition [GQUAD]
Details: for viability, T/C: stronger effect = lower value
Description: DNA G-quadruplex Stabilizer Agents in Combinations in Complex Spheroids
A high-throughput screen of multi-cell type tumor spheroids was designed to identify active combinations of DNA G-quadruplex stabilizer agents and targeted small molecules. Complex spheroids include a stromal component modeled by human endothelial cells (HUVEC) and fibroblasts modeled by human mesenchymal stem cells (MSCs). The concentration ranges selected for each drug and investigational agent were based upon clinically achievable concentrations if the clinical Cmax of the agent was known.
Compounds. The drugs and investigational agents: pidnarulex (CX-5461; NSC782164), APTO-253 (NSC789042), BRACO-19 (NSC847499), peposertib (NSC802822), ceralasertib (NSC780249), elimusertib (NSC800525), camonsertib (NSC841442), AZD-1390 (NSC803789), olaparib (NSC753686), talazoparib (NSC767125), ART-558 (NSC835418), sotorasib (NSC818433), MRTX-1133 (NSC836407), SN-38 (NSC673596), topotecan (NSC609699), etoposide (NSC141540), doxorubicin (NSC123127), gemcitabine (NSC613327), 5-fluorouracil (NSC19893), paclitaxel (NSC125973), vemurafenib (NSC761431), panobinostat (NSC761190), R-306465 (JNJ-16241199; NSC773264), adavosertib (NSC754352), TP-3654 (NSC805149), carboplatin (NSC241240), KSQ-4279 (NSC840948), and staurosporine (NSC755774) were obtained from the National Cancer Institute (NCI) Developmental Therapeutics Program Chemical Repository (34). The FDA-approved anticancer drug set is available from the NCI Developmental Therapeutics Program. […] The stock solutions were prepared in dimethyl sulfoxide (DMSO, Sigma-Aldrich, St. Louis, MO, cat. D2650) at 800-fold the tested concentration and stored at -70 degrees C prior to their use. All drugs and investigational agents were tested over a range starting from a high concentration at or near the clinical Cmax and decreasing in half-log increments. If the clinical Cmax for an agent had not been determined, the highest concentration tested was 10 microM.
2.3 Cell Culture. All cells were maintained in an incubator at 37 degrees C and 5% CO2 with 95% humidity. The PDC lines were cultured according to standard operating procedures established by the NCI PDMR. All PDCs were thawed and cultured in Matrigel-coated flasks prepared with a working solution of 1X Ham's F-12 nutrient mix, without supplementation (Invitrogen, cat. 11765054), 100 U/mL penicillin-streptomycin (Invitrogen, cat. 15140122), and 2.5% Matrigel (Corning Inc., cat. 354248) for the first three passages. The 857933-349-R-J2-PDC line was cultured in 6C/Colon 1B media, which includes advanced DMEM/F-12 (Thermo Fisher Scientific, cat. 12634028), 10 mM HEPES (Thermo Fisher Scientific, cat. 15630080), 1X GlutaMAX supplement (Thermo Fisher Scientific, cat. 35050061), 0.1 mg/mL primocin (InvivoGen, cat. ant-pm-2), 10% defined fetal bovine serum, heat inactivated (HyClone Laboratories Inc., cat. SH30070.03HI), 50% L-WRN conditioned media (ATCC, cat. CRL-3276), 1.25 mM N-Acetyl-L-cysteine (Sigma-Aldrich, cat. A9165), 10 mM nicotinamide (Sigma-Aldrich, cat. N0636), 1X B-27 supplement (Thermo Fisher Scientific, cat. 17504044), 1X N-2 supplement (Thermo Fisher Scientific, cat. 17502048), 10 microM Y-27632 dihydrochloride (Tocris Bioscience, cat. 1254), and 50 ng/mL human EGF recombinant protein (Thermo Fisher Scientific, cat. PHG0311). The 485176-168-R4-J1-PDC line was cultured in Panc media, which includes all 6C/Colon 1B media components plus 100 ng/mL human FGF-10 (Thermo Fisher Scientific, cat. 100-26), 500 nM SB-431542 (Selleckchem, cat. S1067), and gastrin (Tocris, cat. 3006).
[…]
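Note: spheroids exposed to compounds for 7 days before readout.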
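Throughout, for viability, T/C: percent of vehicle DMSO control viability with 100% = untreated-like growth.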

C#Cc1c(F)ccc2cc(O)cc(-c3ncc4c(N5CC6CCC(C5)N6)nc(OCC56CCCN5CC(F)C6)nc4c3F)c12 (centres undefined) + Cc1[nH]c2ccc(F)cc2c1-c1nc2c3cccnc3c3ncccc3c2[nH]1
IC50 (curve of first compound, second compound 0.0316 µM): 1890 nM
IC50 (curve of first compound, second compound 0.1 µM): 1280 nM
IC50 (curve of first compound, second compound 0.316 µM): 1370 nM
IC50 (curve of first compound, second compound 1 µM): 825 nM
IC50 (curve of first compound, second compound 3.16 µM): 35.9 nM
IC50 (curve of first compound, second compound 10 µM): < 31.6 nM
viability, T/C (second compound 0.0316 µM, first compound 0.0316 µM): 108%
viability, T/C (second compound 0.0316 µM, first compound 0.1 µM): 95.5%
viability, T/C (second compound 0.0316 µM, first compound 0.316 µM): 82.2%
viability, T/C (second compound 0.0316 µM, first compound 1 µM): 83.2%
viability, T/C (second compound 0.0316 µM, first compound 3.16 µM): 20.6%
viability, T/C (second compound 0.0316 µM, first compound 10 µM): 26%
viability, T/C (second compound 0.1 µM, first compound 0.0316 µM): 104%
viability, T/C (second compound 0.1 µM, first compound 0.1 µM): 114%
viability, T/C (second compound 0.1 µM, first compound 0.316 µM): 98.3%
viability, T/C (second compound 0.1 µM, first compound 1 µM): 59.6%
viability, T/C (second compound 0.1 µM, first compound 3.16 µM): 13.2%
viability, T/C (second compound 0.1 µM, first compound 10 µM): 22.9%
viability, T/C (second compound 0.316 µM, first compound 0.0316 µM): 96.9%
viability, T/C (second compound 0.316 µM, first compound 0.1 µM): 102%
viability, T/C (second compound 0.316 µM, first compound 0.316 µM): 90.4%
viability, T/C (second compound 0.316 µM, first compound 1 µM): 64.4%
viability, T/C (second compound 0.316 µM, first compound 3.16 µM): 9.13%
viability, T/C (second compound 0.316 µM, first compound 10 µM): 13.3%
viability, T/C (second compound 1 µM, first compound 0.0316 µM): 105%
viability, T/C (second compound 1 µM, first compound 0.1 µM): 110%
viability, T/C (second compound 1 µM, first compound 0.316 µM): 102%
viability, T/C (second compound 1 µM, first compound 1 µM): 39.5%
viability, T/C (second compound 1 µM, first compound 3.16 µM): 6.79%
viability, T/C (second compound 1 µM, first compound 10 µM): 6.81%
viability, T/C (second compound 3.16 µM, first compound 0.0316 µM): 52.7%
viability, T/C (second compound 3.16 µM, first compound 0.1 µM): 28.4%
viability, T/C (second compound 3.16 µM, first compound 0.316 µM): 15.7%
viability, T/C (second compound 3.16 µM, first compound 1 µM): 3.57%
viability, T/C (second compound 3.16 µM, first compound 3.16 µM): 1.91%
viability, T/C (second compound 3.16 µM, first compound 10 µM): 1.84%
viability, T/C (second compound 10 µM, first compound 0.0316 µM): 34.4%
viability, T/C (second compound 10 µM, first compound 0.1 µM): 15.4%
viability, T/C (second compound 10 µM, first compound 0.316 µM): 14.7%
viability, T/C (second compound 10 µM, first compound 1 µM): 2.45%
viability, T/C (second compound 10 µM, first compound 3.16 µM): 1.52%
viability, T/C (second compound 10 µM, first compound 10 µM): 1.43%

Cc1cccc(N(C)C(=O)C2C(O)CCN2c2nc(C)cc(C(F)(F)F)c2C#N)c1 (centres undefined)
viability, T/C (compound 0.0316 µM): 121% and 97.5% and 105%
viability, T/C (compound 0.1 µM): 83% and 85.8% and 99.7%
viability, T/C (compound 0.316 µM): 103% and 89.3% and 99.5%
viability, T/C (compound 1 µM): 89.3% and 97.7% and 105%
viability, T/C (compound 3.16 µM): 98.2% and 99.2% and 94.4%
viability, T/C (compound 10 µM): 80.9% and 80.7% and 90.8%
IC50 (curve of compound): > 10000 nM
